Like-named read-outs stand apart in the source and are kept apart here.
Assays:
rat nNOS = rat nNOS (Rattus norvegicus (Rat), UniProt P29476); assay: Oxyhemoglobin NO capture assay with purified NOS; type: biochemical
Procedure: (§1) The oxyhemoglobin NO assays were performed with purified NOSs using a Biotek Gen5™ microplate reader as previously reported. […] For iNOS, calmodulin and CaCl2 were omitted because iNOS is calcium independent. […] The calculated standard deviations of the assays were less than 10% with all NOSs. […] The selectivity of antagonism of nNOS was determined by calculating the ratios of the Ki values with iNOS or eNOS to those with rat nNOS.

[1] = system: S. aureus UAMS1182 (MRSA); assay: Effect of H2O2 and NOS inhibitors on S. aureus viability (CFU); type: cell-based, Staphylococcus aureus; settings: for effect of co-treatment with H2O2 on killing of S. aureus: 200 μM inhibitor + 5 mM H2O2; for S. aureus survival, inhibitor alone: 200 μM inhibitor, WT and Δnos strains
bovine eNOS = bovine eNOS (Bos taurus (Bovine), UniProt P29473); assay: Oxyhemoglobin NO capture assay with purified NOS; type: biochemical; settings: for e/n selectivity: ratio Ki eNOS / Ki rat nNOS
Procedure: as §1

bsNOS [2] = biological target: T1, bsNOS (Bacillus subtilis (strain 168), UniProt O34453); assay: Imidazole displacement, spectral binding constant KS
T1 sequence (O34453 whole entry): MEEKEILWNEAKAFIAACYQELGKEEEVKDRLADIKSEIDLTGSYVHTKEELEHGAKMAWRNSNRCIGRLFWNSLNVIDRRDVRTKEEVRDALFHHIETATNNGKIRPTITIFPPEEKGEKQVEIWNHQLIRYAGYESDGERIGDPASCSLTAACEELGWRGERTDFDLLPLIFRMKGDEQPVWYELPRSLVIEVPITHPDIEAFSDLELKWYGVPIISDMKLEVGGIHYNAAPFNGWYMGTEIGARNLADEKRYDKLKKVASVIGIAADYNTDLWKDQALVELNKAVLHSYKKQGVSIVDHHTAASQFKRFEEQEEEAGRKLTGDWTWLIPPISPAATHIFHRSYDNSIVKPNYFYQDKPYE

murine iNOS = murine iNOS (Mus musculus (Mouse), UniProt P29477); assay: Oxyhemoglobin NO capture assay with purified NOS; type: biochemical; settings: for i/n selectivity: ratio Ki iNOS / Ki rat nNOS
Procedure: as §1

nNOS = nNOS (Rattus norvegicus (Rat), UniProt P29476); settings: literature data (footnote b); read-out: KS nNOS; cited from earlier work
bsNOS [3] = biological target: T1, bsNOS; settings: cited from earlier work
eNOS = eNOS (Bos taurus (Bovine), UniProt P29473); settings: literature data (footnotes a, c); read-out: KS eNOS; cited from earlier work
human nNOS = human nNOS (Homo sapiens (Human), UniProt P29475); assay: Oxyhemoglobin NO capture assay with purified NOS; type: biochemical; settings: Table 9; read-out: Ki H nNOS
Procedure: as §1

B. subtilis = assay: Effect of oxidative/antimicrobial stress and NOS inhibitors on B. subtilis survival (CFU); type: cell-based, Bacillus subtilis
[4] = WT − KS, wild-type bsNOS, Table 8
[5] = wt B. subtilis, L-NNA, 1 at 500 μM, 2 at 250 μM

Row | Compound | Ki (human nNOS) | Ki (rat nNOS; Table 9, read-out: Ki Rat nNOS) | Ki (bovine eNOS; Table 9, read-out: Ki eNOS) | e/n selectivity (bovine eNOS; Table 9) | Ki (murine iNOS; Table 9, read-out: Ki iNOS) | i/n selectivity (murine iNOS; Table 9) | further results
1 | Cc1cc(N)nc(-c2ccc(CNCCc3cccc(F)c3)cc2)c1 [Compound 27, 6-(4-(((3-Fluorophenethyl)amino)methyl)phenyl)-4-methylpyridin-2-amine] | – | – | – | – | – | – | Ki (rat nNOS): 0.525 µM; effect of co-treatment with H2O2 on killing of S. aureus [1]: significantly increases the H2O2-mediated killing; S. aureus survival, inhibitor alone [1]: reduced bacterial survival over time; Ki (bovine eNOS): 2.87 µM; Kd (bsNOS [2]; KS (bsNOS), Table 5): 8.9 ± 2 µM; Kd (bsNOS [2]; [4]): 8.8 ± 2 µM; Ki (murine iNOS): 6.44 µM
2 | Nc1ccc2ccc(CCNCCCc3cccc(F)c3)cc2n1 [Compound 19] | – | – | – | – | – | – | effect of co-treatment with H2O2 on killing of S. aureus [1]: significantly increases the H2O2-mediated killing; S. aureus survival, inhibitor alone [1]: reduced bacterial survival over time; Kd (bsNOS [2]; KS (bsNOS), Table 5): 3.6 ± 0.8 µM; Kd (bsNOS [2]; [4]): 3.6 ± 0.8 µM
3 | N=C(N)NCCC[C@H](N)C(=O)O [L-Arg, L-arginine] | – | – | – | – | – | – | Kd (nNOS): 0.72 µM; Kd (bsNOS [3]; read-out: WT − KS, wild-type bsNOS, referenced value (25)): 4.8 µM; Kd (bsNOS [2]; KS bsNOS, imidazole displacement, Tables 1 and 4): 0.76 µM; Kd (eNOS): 1 µM
4 | Cc1cc(N)nc(CCc2cccc(N(C)CCN)c2)c1 [Compound 10c, N^1-(3-(2-(6-Amino-4-methylpyridin-2-yl)ethyl)phenyl)-N^1-methylethane-1,2-diamine] | 0.056 ± 0.002 µM | 0.062 ± 0.0041 µM | 10.7 µM | 172 | 2.9 µM | 47 | –
5 | Cc1cc(N)nc(CCc2cccc(NCCN(C)C)c2)c1 [Compound 10b, N^1-(3-(2-(6-Amino-4-methylpyridin-2-yl)ethyl)phenyl)-N^2,N^2-dimethylethane-1,2-diamine] | 0.111 ± 0.009 µM | 0.19 ± 0.012 µM | 23.7 µM | 125 | 5.43 µM | 29 | –
6 | CNCCN(C)c1cncc(CCc2cc(C)cc(N)n2)c1 [Compound 14b, N^1-(5-(2-(6-Amino-4-methylpyridin-2-yl)ethyl)pyridin-3-yl)-N^1,N^2-dimethylethane-1,2-diamine] | 0.059 ± 0.0032 µM | – | 12.9 µM | – | – | – | –
7 | CNCCN(C)c1cc(F)cc(CCc2cc(C)cc(N)n2)c1 [Compound 19b, N^1-(3-(2-(6-Amino-4-methylpyridin-2-yl)ethyl)-5-fluorophenyl)-N^1,N^2-dimethylethane-1,2-diamine] | 0.105 ± 0.0081 µM | 0.034 ± 0.0012 µM | 30.2 µM | – | 5.56 µM | – | –
8 | acriflavine | – | – | – | – | – | – | bacterial growth, % of control (B. subtilis; B. subtilis, agent alone (800 μM ACR or 500 μM NOS inhibitor)): 23 % of control
9 | Cc1cc(N)nc(CCc2cccc(N(C)CCCN)c2)c1 [Compound 10d, N^1-(3-(2-(6-Amino-4-methylpyridin-2-yl)ethyl)phenyl)-N^1-methylpropane-1,3-diamine] | 0.109 ± 0.003 µM | 0.43 ± 0.022 µM | 10.7 µM | 25 | 4.64 µM | 11 | –
10 | CNCCN(C)c1cc(CCc2cc(C)cc(N)n2)cc(C(F)(F)F)c1 [Compound 19a, N^1-(3-(2-(6-Amino-4-methylpyridin-2-yl)ethyl)-5-(trifluoromethyl)phenyl)-N^1,N^2-dimethylethane-1,2-diamine] | 0.189 ± 0.016 µM | 0.067 ± 0.0033 µM | 15.9 µM | 238 | 8.13 µM | 122 | –
11 | CNCCN(C)c1cccc(CCc2cc(C)cc(N)n2)c1 [Compound 10a, N^1-(3-(2-(6-Amino-4-methylpyridin-2-yl)ethyl)phenyl)-N^1,N^2-dimethylethane-1,2-diamine] | 0.098 ± 0.005 µM | 0.13 ± 0.01 µM | 20.2 µM | 156 | 5.34 µM | 41 | –
12 | N=C(NCCC[C@H](N)C(=O)O)N[N+](=O)[O-] [L-NNA, N^ω-nitro-L-arginine, reference compound] | – | – | – | – | – | – | effect on bacterial % survival in the presence of ACR (B. subtilis; [5]): bacterial % survival decreased; effect on bacterial % survival in the presence of H2O2 (B. subtilis; [5]): trivial effects on bacterial survival
13 | NC(=NCCC[C@H](N)C(=O)O)NO [NOHA, N-omega-hydroxy-L-arginine, reference compound] | – | – | – | – | – | – | Kd (bsNOS [3]; absence of H4B, referenced values (8), (9), read-out: KS bsNOS (−H4B)): 3.2 µM; fold difference in KS binding to bsNOS in presence vs absence of H4B (bsNOS [2]; 50 μM H4B): 1.2 fold; Kd (bsNOS [2]; presence of 50 μM H4B, read-out: KS bsNOS (+H4B)): 1.9 ± 0.1 µM
